From paper PMC4269767, “Ligand Binding Modulates the Structural Dynamics and Compactness of the Major Birch Pollen Allergen” (Biophysical Journal, 2014)
Structures can show the parent of a compound that is named as a salt.

What was measured:
Bet v 1.0101 [1] = biological target: T1, Bet v 1.0101 (Betula pendula, UniProt P15494); assay: crystal structure (soaked); 1H-15N HSQC NMR titration; relaxation dispersion; format: binding
T1 construct: gene BETVIA
T1 sequence (P15494 2-160): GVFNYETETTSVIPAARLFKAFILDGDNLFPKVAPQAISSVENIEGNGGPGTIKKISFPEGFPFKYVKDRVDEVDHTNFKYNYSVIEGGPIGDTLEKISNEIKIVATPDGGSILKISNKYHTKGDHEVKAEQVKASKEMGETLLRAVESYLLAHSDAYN

Bet v 1.0101 [2] = biological target: T1, Bet v 1.0101; assay: 1H-15N HSQC NMR titration; PFG diffusion NMR; relaxation dispersion; format: binding

## CCCCCCCCCCCCOS(=O)(=O)O [SDS, sodium dodecyl sulfate]
Bet v 1.0101 [1]
  Kd: 7 µM

## CCCCC(CC)CCC(CC(C)C)OS(=O)(=O)O (centres unmarked) [STS, sodium tetradecyl sulfate]
Bet v 1.0101 [2]
  Kd: 1 µM
